Test results reported in US7138414B2, “Heterocyclically substituted benzoylureas, process for their preparation and their use as pharmaceuticals” (Sanofi-Aventis Deutschland GmbH, priority 2002, dated 2006).

Target: T1, human glycogen phosphorylase a (Homo sapiens, UniProt P06737)
T1 sequence (P06737 2-847 limits assumed): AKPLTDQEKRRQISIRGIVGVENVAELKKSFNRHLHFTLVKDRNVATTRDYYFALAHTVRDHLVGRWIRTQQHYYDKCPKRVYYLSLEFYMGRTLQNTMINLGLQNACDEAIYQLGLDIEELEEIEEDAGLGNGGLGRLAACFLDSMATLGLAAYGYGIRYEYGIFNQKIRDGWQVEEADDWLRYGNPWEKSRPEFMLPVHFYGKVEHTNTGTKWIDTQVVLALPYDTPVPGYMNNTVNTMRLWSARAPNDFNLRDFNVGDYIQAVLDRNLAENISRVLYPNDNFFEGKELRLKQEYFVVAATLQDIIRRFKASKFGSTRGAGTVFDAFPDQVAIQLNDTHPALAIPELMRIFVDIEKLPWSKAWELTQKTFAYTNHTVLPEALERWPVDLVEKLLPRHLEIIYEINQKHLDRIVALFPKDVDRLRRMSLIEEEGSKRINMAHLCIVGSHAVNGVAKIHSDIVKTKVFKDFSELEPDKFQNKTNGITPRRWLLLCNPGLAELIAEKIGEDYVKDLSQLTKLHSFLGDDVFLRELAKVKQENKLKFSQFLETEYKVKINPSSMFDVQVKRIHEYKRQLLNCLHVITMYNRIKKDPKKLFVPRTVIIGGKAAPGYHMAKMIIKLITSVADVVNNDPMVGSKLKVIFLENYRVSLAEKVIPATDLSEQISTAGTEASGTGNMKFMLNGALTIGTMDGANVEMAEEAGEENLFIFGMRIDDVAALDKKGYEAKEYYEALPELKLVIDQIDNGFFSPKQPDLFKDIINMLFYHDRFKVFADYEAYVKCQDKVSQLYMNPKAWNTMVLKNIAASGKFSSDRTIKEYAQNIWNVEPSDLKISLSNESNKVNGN
Assay: Glycogen phosphorylase a activity test (reverse direction, release of inorganic phosphate)
Format: biochemical
Details: 10 μM test substance, duplicate determinations, 40 min at room temperature
Experimental: Glycogen Phophorylase a Activity Test
All reactions were carried out as duplicate determinations in 96-well microtiter plates (half area plates, Costar No. 3696), and the change in absorption as a consequence of the formation of the reaction product was measured at the wavelength specified below in a Multiskan Ascent Elisa Reader (Lab Systems, Finland).
In order to measure the GPa enzyme activity in the reverse direction, the conversion of glucose 1-phosphate to glycogen and inorganic phosphate was measured by the general method of Engers et al. (Engers H D, Shechosky S, Madsen N B, Can J Biochem 1970 July;48(7):746–754) with the following modifications: human glycogen phosphorylase a (for example containing 0.76 mg of protein/ml (Aventis Pharma Deutschland GmbH), dissolved in buffer solution E (25 mM β-glycerophosphate, pH 7.0, 1 mM EDTA and 1 mM dithiothreitol) was diluted to a concentration of 10 μg of protein/ml with buffer T (50 mM Hepes, pH 7.0, 100 mM KCl, 2.5 mM EDTA, 2.5 mM MgCl26H2O) and addition of 5 mg/ml of glycogen. Test substances were prepared as a 10 mM solution in DMSO and diluted to 50 μM with buffer solution T. To 10 μl of this solution were added 10 μl of 37.5 mM glucose dissolved in buffer solution T and 5 mg/ml of glycogen, and also 10 μl of a solution of human glycogen phosphorylase a (10 μg of protein/ml) and 20 μl of 2.5 mM glucose 1-phosphate. The base value of the activity of glycogen phosphorylase a in the absence of test substance was determined by adding 10 μl of buffer solution T (0.1% DMSO). The mixture was incubated at room temperature for 40 minutes and the released inorganic phosphate was determined by means of the general method of Drueckes et al. (al (Drueckes P, Schinzel R, Palm D, Anal Biochem 1995 Sep. 1;230(1):173–177) with the following modifications: 50 μl of a stop solution of 7.3 mM of ammonium molybdate, 10.9 mM of zinc acetate, 3.6% of ascorbic acid, 0.9% of SDS are added to 50 μl of the enzyme mixture. After 60 minutes of incubation at 45° C., the absorption was measured at 820 nm. To determine the background absorption, the stop solution was added immediately after the addition of the glucose 1-phosphate solution in a separate reaction. This test was carried out at a concentration of 10 μM of the test substance, in order to determine the respective inhibition of glycogen phosphorylase a by the test substance in vitro.

Row | Structure (SMILES) | % inhibition at 10 μM [%] | % inhibition at 10 μM (10 µM) [%]
1 | COc1cc(-c2nnc(CC(=O)O)[nH]2)ccc1NC(=O)NC(=O)c1ccc(F)cc1Cl [Example 4d, (5-(4-(3-(2-chloro-4-fluorobenzoyl)ureido)-3-methoxyphenyl)-4H-[1,2,4]triazol-3-yl)acetic acid] | 90 | –
2 | CCN(CC)C(=O)C1CCCN(c2ccc(F)cc2NC(=O)NC(=O)c2cc(F)c(F)cc2Cl)C1 (centres unmarked) [Example 37] | 3.9 | –
3 | COC(=O)C1CCN(c2ccc(F)cc2NC(=O)NC(=O)c2ccc(F)cc2Cl)CC1 [Example 40] | 4.6 | –
4 | COC(=O)c1ccc(N2CCCC(C(=O)O)C2)c(NC(=O)NC(=O)c2cc(F)c(F)cc2Cl)c1 (centres unmarked) [Example 33] | 1.0 | –
5 | Cc1ccc(NC(=O)NC(=O)c2cc(F)c(F)cc2Cl)c(N2CCCC(C(=O)O)C2)c1 (centres unmarked) [Example 26] | 0.04 | –
6 | O=C(NC(=O)c1ccc(F)cc1Cl)Nc1cc(C(F)(F)F)ccc1N1CCCC(C(=O)O)C1 (centres unmarked) [Example 24] | 0.09 | –
7 | Cc1ccc(NC(=O)NC(=O)c2ccc(F)cc2Cl)c(N2CCCC(C(=O)O)C2)c1 (centres unmarked) [Example 25] | 0.06 | –
8 | COC(=O)C1CCN(c2ccc(S(C)(=O)=O)cc2NC(=O)NC(=O)c2cc(F)c(F)cc2Cl)CC1 [Example 44] | 0.05 | –
9 | COc1cc(-c2nnc(C)[nH]2)ccc1NC(=O)NC(=O)c1cc(F)c(F)cc1Cl [Example 3, 1-(2-chloro-4,5-difluorobenzoyl)-3-[2-methoxy-4-(5-methyl-4H-[1,2,4]triazol-3-yl)-phenyl]urea] | 100 | –
10 | CS(=O)(=O)c1ccc(N2CCCC(C(=O)O)C2)c(NC(=O)NC(=O)c2cc(F)c(F)cc2Cl)c1 (centres unmarked) [Example 21] | 0.3 | –
11 | O=C(NC(=O)c1ccc(F)cc1Cl)Nc1cc(F)ccc1N1CCC(C(=O)O)CC1 [Example 20] | 0.04 | –
12 | COC(=O)c1ccc(N2CCCC(C(=O)O)C2)c(NC(=O)NC(=O)c2ccc(F)cc2Cl)c1 (centres unmarked) [Example 34] | 3.2 | –
13 | O=C(NC(=O)c1ccc(F)cc1Cl)Nc1cc(C(F)(F)F)ccc1N1CCC(C(=O)O)CC1 [Example 43] | – | 0.15
14 | Cc1ccc(N2CCCC(C(=O)O)C2)c(NC(=O)NC(=O)c2ccc(F)cc2Cl)c1 (centres unmarked) [Example 28] | 0.04 | –
15 | O=C(NC(=O)c1cc(F)c(F)cc1Cl)Nc1cc(C(F)(F)F)ccc1N1CCCC(C(=O)O)C1 (centres unmarked) [Example 23] | 0.03 | –
16 | O=C(NC(=O)c1cc(F)c(F)cc1Cl)Nc1ccc(-n2cncn2)cc1F [Example 1c, 1-(2-chloro-4,5-difluorobenzoyl)-3-(2-fluoro-4-[1,2,4]triazol-1-ylphenyl)urea] | 94 | –
17 | COC(=O)C1CCN(c2ccc(S(C)(=O)=O)cc2NC(=O)NC(=O)c2ccc(F)cc2Cl)CC1 [Example 45] | 0.8 | –
18 | CCN(CC)C(=O)C1CCCN(c2ccc(F)cc2NC(=O)NC(=O)c2ccc(F)cc2Cl)C1 (centres unmarked) [Example 38] | 4.6 | –
19 | CCOC(=O)C1CCCN(c2ccc(F)cc2NC(=O)NC(=O)c2ccc(F)cc2Cl)C1 (centres unmarked) [Example 36] | 0.3 | –
20 | CS(=O)(=O)c1ccc(N2CCCC(C(=O)O)C2)c(NC(=O)NC(=O)c2ccc(F)cc2Cl)c1 (centres unmarked) [Example 22] | 1.1 | –

Second part, the compound after the results:

Row | % inhibition at 10 μM [%] | % inhibition at 10 μM (10 µM) [%] | Structure (SMILES)
21 | 85 | – | Cc1cc(=O)n(-c2ccc(NC(=O)NC(=O)c3ccc(F)cc3Cl)c(C)c2)[nH]1 [Example 12c, 1-(2-chloro-4-fluorobenzoyl)-3-[2-methyl-4-(3-methyl-5-oxo-2,5-dihydropyrazol-1-yl)phenyl]urea]
22 | 48 | – | O=C(NC(=O)c1cc(F)c(F)cc1Cl)Nc1ccccc1-c1nc2ccccc2[nH]1 [Example 13a, 1-[2-(1H-benzoimidazol-2-yl)phenyl]-3-(2-chloro-4,5-difluorobenzoyl)urea]
23 | 79 | – | Cc1nnc(-c2ccc(NC(=O)NC(=O)c3ccc(F)cc3Cl)c(Cl)c2)o1 [Example 9g, 1-(2-chloro-4-fluorobenzoyl)-3-[2-chloro-4-(5-methyl-[1,3,4]oxadiazol-2-yl)phenyl]urea]
24 | 100 | – | O=C(NC(=O)c1ccc(F)cc1Cl)Nc1ccc(-c2nnn[nH]2)cc1Cl [Example 7c, 1-(2-chloro-4-fluorobenzoyl)-3-[2-chloro-4-(1H-tetrazol-5-yl)phenyl]urea]
25 | 9 | – | Cc1nnc(-c2ccccc2NC(=O)NC(=O)c2cc(F)c(F)cc2Cl)n1-c1ccccc1C(=O)O [Example 5e, 2-(3-{2-[3-(2-chloro-4,5-difluorobenzoyl)ureido]phenyl}-5-methyl-[1,2,4]triazol-4-yl)benzoic acid]
26 | 96 | – | COc1cc(-c2nnc(O)o2)ccc1NC(=O)NC(=O)c1ccc(F)cc1Cl [Example 8c, 1-(2-chloro-4-fluorobenzoyl)-3-[4-(5-hydroxy-[1,3,4]oxadiazol-2-yl)-2-methoxyphenyl]urea]
27 | 97 | – | Cc1nnc(-c2ccc(Cl)c(NC(=O)NC(=O)c3cc(F)c(F)cc3Cl)c2)[nH]c1=O [Example 14e, 1-(2-chloro-4,5-difluorobenzoyl)-3-[2-chloro-5-(6-methyl-5-oxo-4,5-dihydro-[1,2,4]triazin-3-yl)phenyl]urea]
28 | 100 | – | Cc1nnc(-c2ccc(Cl)c(NC(=O)NC(=O)c3cc(F)c(F)cc3Cl)c2)nc1C [Example 14f, 1-(2-chloro-4,5-difluorobenzoyl)-3-[2-chloro-5-(5,6-dimethyl-[1,2,4]triazin-3-yl)phenyl]urea]
29 | 20 | – | COc1nn(-c2ccc(NC(=O)NC(=O)c3ccc(F)cc3Cl)c(OC)c2)c(=O)o1 [Example 9e, 1-(2-chloro-4-fluorobenzoyl)-3-(2-methoxy-4-(5-methoxy-2-oxo-3H-[1,3,4]-oxadiazol-3-yl)phenyl)urea]
30 | 100 | – | O=C(NC(=O)c1ccc(F)cc1Cl)Nc1ccc(-c2nnn[nH]2)cc1OC(F)(F)F [Example 7e, 1-(2-chloro-4-fluorobenzoyl)-3-[4-(1H-tetrazol-5-yl)-2-trifluoromethoxyphenyl]-urea]
31 | 100 | – | O=C(NC(=O)c1cc(F)c(F)cc1Cl)Nc1ccc(-c2nnn[nH]2)cc1Cl [Example 7d, 1-(2-chloro-4,5-difluorobenzoyl)-3-[2-chloro-4-(1H-tetrazol-5-yl)phenyl)urea]
32 | 100 | – | O=C(NC(=O)c1cc(F)c(F)cc1Cl)Nc1ccc(-c2noc(=O)[nH]2)cc1OC(F)(F)F [Example 11d, 1-(2-chloro-4,5-difluorobenzoyl)-3-[4-(5-oxo-4,5-dihydro-[1,2,4]oxadiazol-3-yl)-2-trifluoromethoxyphenyl]urea]
33 | 100 | – | O=C(NC(=O)c1cc(F)c(F)cc1Cl)Nc1cc(-c2nnc[nH]2)ccc1Cl [Example 6e, 1-(2-chloro-4,5-difluorobenzoyl)-3-[2-chloro-5-(4H-[1,2,4]triazol-3-yl)phenyl]urea]
34 | 100 | – | Cc1nnc(-c2ccc(Cl)c(NC(=O)NC(=O)c3cc(F)c(F)cc3Cl)c2)[nH]1 [Example 6d, 1-(2-chloro-4,5-difluorobenzoyl)-3-[2-chloro-5-(5-methyl-4H-[1,2,4]triazol-3-yl)phenyl]urea]
35 | 100 | – | O=C(NC(=O)c1cc(F)c(F)cc1Cl)Nc1ccc(-c2nnn[nH]2)cc1OC(F)(F)F [Example 7f]
